Experimental data: ChEMBL document CHEMBL3608278 (J Med Chem, 2015)

Key:
[1] = molecular target: T1, Potassium voltage-gated channel subfamily A member 3 (Homo sapiens, UniProt P22001); assay: cell-based; design: species or system Blood
[2] = molecular target: T1, Potassium voltage-gated channel subfamily A member 3; design: species or system Blood

T1 sequence (P22001 whole entry): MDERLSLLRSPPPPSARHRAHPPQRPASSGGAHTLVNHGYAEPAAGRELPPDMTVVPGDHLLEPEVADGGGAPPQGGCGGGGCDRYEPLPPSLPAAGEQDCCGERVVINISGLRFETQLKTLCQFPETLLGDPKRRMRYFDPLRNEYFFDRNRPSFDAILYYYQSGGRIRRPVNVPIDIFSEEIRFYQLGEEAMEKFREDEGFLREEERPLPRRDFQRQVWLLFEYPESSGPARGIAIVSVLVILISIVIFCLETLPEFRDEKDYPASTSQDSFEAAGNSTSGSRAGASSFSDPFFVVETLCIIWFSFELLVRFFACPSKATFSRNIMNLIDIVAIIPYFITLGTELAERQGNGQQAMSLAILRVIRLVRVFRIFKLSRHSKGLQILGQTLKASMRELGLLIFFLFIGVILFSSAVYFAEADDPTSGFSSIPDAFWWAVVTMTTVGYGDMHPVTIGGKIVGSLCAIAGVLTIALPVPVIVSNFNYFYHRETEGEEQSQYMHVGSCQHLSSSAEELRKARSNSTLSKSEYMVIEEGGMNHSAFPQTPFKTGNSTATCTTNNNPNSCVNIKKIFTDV

Row | Structure (SMILES) | IC50 [1] | IC50 [2]
1 | CC[C@H](C)[C@@H]1NC(=O)[C@@H](NC(=O)[C@H](CO)NC(=O)[C@@H](N)CCCNC(=N)N)CSSC[C@@H](C(=O)O)NC(=O)[C@H]([C@@H](C)O)NC(=O)CNC(=O)[C@@H]2CSSC[C@@H]3NC(=O)[C@H](CCC(N)=O)NC(=O)[C@H](Cc4ccccc4)NC(=O)[C@H](C)NC(=O)[C@H]([C@@H](C)O)NC(=O)[C@H](CSSC[C@H](NC(=O)[C@H](Cc4ccccc4)NC(=O)[C@H](CO)NC(=O)[C@H](CC(C)C)NC(=O)[C@H](CCCNC(=N)N)NC(=O)[C@H](Cc4ccc(O)cc4)NC(=O)[C@H](CCCCN)NC(=O)[C@H](CCSC)NC(=O)[C@H](CO)NC(=O)[C@H](Cc4cnc[nH]4)NC(=O)[C@H](CCCCN)NC3=O)C(=O)N[C@@H](CCCNC(=N)N)C(=O)N[C@@H](CCCCN)C(=O)N[C@@H]([C@@H](C)O)C(=O)N2)NC(=O)[C@H](CCCNC(=N)N)NC(=O)[C@H](CO)NC(=O)[C@H](CCCNC(=N)N)NC(=O)[C@@H]2CCCN2C(=O)[C@H]([C@@H](C)CC)NC(=O)[C@H]([C@@H](C)O)NC(=O)[C@H](CC(=O)O)NC1=O | 0.076 nM | 0.083 nM
2 | CC[C@H](C)[C@@H]1NC(=O)[C@@H](NC(=O)[C@H](CO)NC(=O)[C@@H](N)CCCNC(=N)N)CSSC[C@@H](C(=O)O)NC(=O)[C@H]([C@@H](C)O)NC(=O)CNC(=O)[C@@H]2CSSC[C@@H]3NC(=O)[C@H](CCC(N)=O)NC(=O)[C@H](Cc4ccccc4)NC(=O)[C@H](C)NC(=O)[C@H]([C@@H](C)O)NC(=O)[C@H](CSSC[C@H](NC(=O)[C@H](Cc4ccccc4)NC(=O)[C@H](CO)NC(=O)[C@H](CCCNC(=N)N)NC(=O)[C@H](CCCNC(=N)N)NC(=O)[C@H](Cc4ccc(O)cc4)NC(=O)[C@H](CCCCN)NC(=O)[C@H](CCSC)NC(=O)[C@H](CO)NC(=O)[C@H](Cc4cnc[nH]4)NC(=O)[C@H](CCCCN)NC3=O)C(=O)N[C@@H](CCCNC(=N)N)C(=O)N[C@@H](CCCCN)C(=O)N[C@@H]([C@@H](C)O)C(=O)N2)NC(=O)[C@H](CCCNC(=N)N)NC(=O)[C@H](CO)NC(=O)[C@H](CCCCN)NC(=O)[C@@H]2CCCN2C(=O)[C@H]([C@@H](C)CC)NC(=O)[C@H]([C@@H](C)O)NC(=O)[C@H](CC(=O)O)NC1=O | 0.137 nM | 0.194 nM
3 | CC[C@H](C)[C@@H]1NC(=O)[C@@H](NC(=O)[C@H](CO)NC(=O)[C@@H](N)CCCNC(=N)N)CSSC[C@@H](C(=O)O)NC(=O)[C@H]([C@@H](C)O)NC(=O)CNC(=O)[C@@H]2CSSC[C@@H]3NC(=O)[C@H](CCC(N)=O)NC(=O)[C@H](Cc4ccccc4)NC(=O)[C@H](C)NC(=O)[C@H]([C@@H](C)O)NC(=O)[C@H](CSSC[C@H](NC(=O)[C@H](Cc4ccccc4)NC(=O)[C@H](CCCNC(=N)N)NC(=O)[C@H](CC(C)C)NC(=O)[C@H](CCCNC(=N)N)NC(=O)[C@H](Cc4ccc(O)cc4)NC(=O)[C@H](CCCCN)NC(=O)[C@H](CCSC)NC(=O)[C@H](CO)NC(=O)[C@H](Cc4cnc[nH]4)NC(=O)[C@H](CCCCN)NC3=O)C(=O)N[C@@H](CCCNC(=N)N)C(=O)N[C@@H](CCCCN)C(=O)N[C@@H]([C@@H](C)O)C(=O)N2)NC(=O)[C@H](CCCNC(=N)N)NC(=O)[C@H](CO)NC(=O)[C@H](CCCCN)NC(=O)[C@@H]2CCCN2C(=O)[C@H]([C@@H](C)CC)NC(=O)[C@H]([C@@H](C)O)NC(=O)[C@H](CC(=O)O)NC1=O | 0.158 nM | 0.368 nM
4 | CC[C@H](C)[C@@H]1NC(=O)[C@@H](NC(=O)[C@H](CO)NC(=O)[C@@H](N)CCCNC(=N)N)CSSC[C@@H](C(=O)O)NC(=O)[C@H]([C@@H](C)O)NC(=O)CNC(=O)[C@@H]2CSSC[C@@H]3NC(=O)[C@H](CCC(N)=O)NC(=O)[C@H](Cc4ccccc4)NC(=O)[C@H](C)NC(=O)[C@H]([C@@H](C)O)NC(=O)[C@H](CSSC[C@H](NC(=O)[C@H](Cc4ccccc4)NC(=O)[C@H](CO)NC(=O)[C@H](CC(C)C)NC(=O)[C@H](CCCNC(=N)N)NC(=O)[C@H](Cc4ccc(O)cc4)NC(=O)[C@H](CCCCN)NC(=O)[C@H](CCSC)NC(=O)[C@H](CO)NC(=O)[C@H](CCCCN)NC(=O)[C@H](CCCCN)NC3=O)C(=O)N[C@@H](CCCNC(=N)N)C(=O)N[C@@H](CCCCN)C(=O)N[C@@H]([C@@H](C)O)C(=O)N2)NC(=O)[C@H](CCCNC(=N)N)NC(=O)[C@H](CO)NC(=O)[C@H](CCCCN)NC(=O)[C@@H]2CCCN2C(=O)[C@H]([C@@H](C)CC)NC(=O)[C@H]([C@@H](C)O)NC(=O)[C@H](CC(=O)O)NC1=O | 0.041 nM | 0.089 nM
5 | CC[C@H](C)[C@@H]1NC(=O)[C@@H](NC(=O)[C@H](CO)NC(=O)[C@@H](N)CCCNC(=N)N)CSSC[C@@H](C(=O)O)NC(=O)[C@H]([C@@H](C)O)NC(=O)CNC(=O)[C@@H]2CSSC[C@@H]3NC(=O)[C@H](CCC(N)=O)NC(=O)[C@H](Cc4ccccc4)NC(=O)[C@H](C)NC(=O)[C@H]([C@@H](C)O)NC(=O)[C@H](CSSC[C@H](NC(=O)[C@H](Cc4ccccc4)NC(=O)[C@H](CO)NC(=O)[C@H](CCCCN)NC(=O)[C@H](CCCNC(=N)N)NC(=O)[C@H](Cc4ccc(O)cc4)NC(=O)[C@H](CCCCN)NC(=O)[C@H](CCSC)NC(=O)[C@H](CO)NC(=O)[C@H](Cc4cnc[nH]4)NC(=O)[C@H](CCCCN)NC3=O)C(=O)N[C@@H](CCCNC(=N)N)C(=O)N[C@@H](CCCCN)C(=O)N[C@@H]([C@@H](C)O)C(=O)N2)NC(=O)[C@H](CCCNC(=N)N)NC(=O)[C@H](CO)NC(=O)[C@H](CCCCN)NC(=O)[C@@H]2CCCN2C(=O)[C@H]([C@@H](C)CC)NC(=O)[C@H]([C@@H](C)O)NC(=O)[C@H](CC(=O)O)NC1=O | 0.226 nM | 0.366 nM
6 | CC[C@H](C)[C@@H]1NC(=O)[C@@H](NC(=O)[C@H](CO)NC(=O)[C@@H](N)CCCNC(=N)N)CSSC[C@@H](C(=O)O)NC(=O)[C@H]([C@@H](C)O)NC(=O)CNC(=O)[C@@H]2CSSC[C@@H]3NC(=O)[C@H](CCC(N)=O)NC(=O)[C@H](Cc4ccccc4)NC(=O)[C@H](C)NC(=O)[C@H]([C@@H](C)O)NC(=O)[C@H](CSSC[C@H](NC(=O)[C@H](Cc4ccccc4)NC(=O)[C@H](CO)NC(=O)[C@H](CC(C)C)NC(=O)[C@H](CCCNC(=N)N)NC(=O)[C@H](Cc4ccc(O)cc4)NC(=O)[C@H](CCCCN)NC(=O)[C@H](CCSC)NC(=O)[C@H](CO)NC(=O)[C@H](Cc4c[nH]cn4)NC(=O)[C@H](CCCCN)NC3=O)C(=O)N[C@@H](CCCNC(=N)N)C(=O)N[C@@H](CCCCN)C(=O)N[C@@H](CCCCN)C(=O)N2)NC(=O)[C@H](CCCNC(=N)N)NC(=O)[C@H](CO)NC(=O)[C@H](CCCCN)NC(=O)[C@@H]2CCCN2C(=O)[C@H]([C@@H](C)CC)NC(=O)[C@H]([C@@H](C)O)NC(=O)[C@H](CC(=O)O)NC1=O | 5.98 nM | 27.9 nM
7 | CC[C@H](C)[C@@H]1NC(=O)[C@@H](NC(=O)[C@H](CO)NC(=O)[C@@H](N)CCCNC(=N)N)CSSC[C@@H](C(=O)O)NC(=O)[C@H]([C@@H](C)O)NC(=O)CNC(=O)[C@@H]2CSSC[C@@H]3NC(=O)[C@H](CCN)NC(=O)[C@H](Cc4ccccc4)NC(=O)[C@H](C)NC(=O)[C@H]([C@@H](C)O)NC(=O)[C@H](CSSC[C@H](NC(=O)[C@H](Cc4ccccc4)NC(=O)[C@H](CO)NC(=O)[C@H](CC(C)C)NC(=O)[C@H](CCCNC(=N)N)NC(=O)[C@H](Cc4ccc(O)cc4)NC(=O)[C@H](CCCCN)NC(=O)[C@H](CCSC)NC(=O)[C@H](CO)NC(=O)[C@H](Cc4c[nH]cn4)NC(=O)[C@H](CCCCN)NC3=O)C(=O)N[C@@H](CCCNC(=N)N)C(=O)N[C@@H](CCCCN)C(=O)N[C@@H]([C@@H](C)O)C(=O)N2)NC(=O)[C@H](CCCNC(=N)N)NC(=O)[C@H](CO)NC(=O)[C@H](CCCCN)NC(=O)[C@@H]2CCCN2C(=O)[C@H]([C@@H](C)CC)NC(=O)[C@H]([C@@H](C)O)NC(=O)[C@H](CC(=O)O)NC1=O | 0.086 nM | 0.223 nM
8 | CC[C@H](C)[C@@H]1NC(=O)[C@@H](NC(=O)[C@H](CO)NC(=O)[C@@H](N)CCCNC(=N)N)CSSC[C@@H](C(=O)N[C@@H](C)C(=O)O)NC(=O)[C@H]([C@@H](C)O)NC(=O)CNC(=O)[C@@H]2CSSC[C@@H]3NC(=O)[C@H](CCCCN)NC(=O)[C@H](Cc4ccccc4)NC(=O)[C@H](C)NC(=O)[C@H]([C@@H](C)O)NC(=O)[C@H](CSSC[C@H](NC(=O)[C@H](Cc4ccccc4)NC(=O)[C@H](CO)NC(=O)[C@H](CC(C)C)NC(=O)[C@H](CCCNC(=N)N)NC(=O)[C@H](Cc4ccc(O)cc4)NC(=O)[C@H](CCCCN)NC(=O)[C@H](CCSC)NC(=O)[C@H](CO)NC(=O)[C@H](Cc4cnc[nH]4)NC(=O)[C@H](CCCCN)NC3=O)C(=O)N[C@@H](CCCNC(=N)N)C(=O)N[C@@H](CCCCN)C(=O)N[C@@H]([C@@H](C)O)C(=O)N2)NC(=O)[C@H](CCCNC(=N)N)NC(=O)[C@H](CO)NC(=O)[C@H](CCCCN)NC(=O)[C@@H]2CCCN2C(=O)[C@H]([C@@H](C)CC)NC(=O)[C@H]([C@@H](C)O)NC(=O)[C@H](CC(=O)O)NC1=O | 0.138 nM | 0.266 nM
9 | CCCC[C@@H]1NC(=O)[C@H](CO)NC(=O)[C@H](Cc2c[nH]cn2)NC(=O)[C@H](CCCCN)NC(=O)[C@@H]2CSSC[C@@H]3NC(=O)[C@H]([C@@H](C)O)NC(=O)[C@H](CCCCN)NC(=O)[C@H](CCCNC(=N)N)NC(=O)[C@H](CSSC[C@H](NC(=O)[C@H](CCCNC(=N)N)NC(=O)[C@H](CO)NC(=O)[C@H](CCCCN)NC(=O)[C@@H]4CCCN4C(=O)[C@H]([C@@H](C)CC)NC(=O)[C@H]([C@@H](C)O)NC(=O)[C@H](CC(=O)O)NC(=O)[C@H]([C@@H](C)CC)NC(=O)[C@@H](NC(=O)[C@H](CO)NC(=O)[C@@H](N)CCCNC(=N)N)CSSC[C@@H](C(N)=O)NC(=O)[C@H]([C@@H](C)O)NC(=O)CNC3=O)C(=O)N[C@@H]([C@@H](C)O)C(=O)N[C@@H](C)C(=O)N[C@@H](Cc3ccccc3)C(=O)N[C@@H](CCCCN)C(=O)N2)NC(=O)[C@H](Cc2ccccc2)NC(=O)[C@H](CO)NC(=O)[C@H](CC(C)C)NC(=O)[C@H](CCCNC(=N)N)NC(=O)[C@H](Cc2ccc(O)cc2)NC(=O)[C@H](CCCCN)NC1=O | 0.823 nM | 1.1 nM
